From PubChem BioAssay (NCI)
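How tested: cells in 96-well plates exposed to compound for 48 hours at five concentrations. Here, GI50 denotes the concentration required for 50% inhibition of growth. TGI: total growth inhibition.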

Key:
Assay in all cases: NCI anticancer screen, dose series, 48 h
OVCAR-4 ovarian = tested on: OVCAR-4 ovarian
A549 NSCLC = tested on: A549 NSCLC
IGROV1 ovarian = tested on: IGROV1 ovarian
786-0 renal = tested on: 786-0 renal
UACC-62 melanoma = tested on: UACC-62 melanoma
UACC-257 melanoma = tested on: UACC-257 melanoma
HCT-15 colon = tested on: HCT-15 colon
SK-MEL-2 melanoma = tested on: SK-MEL-2 melanoma
SR leukemia = tested on: SR leukemia
NCI/ADR-RES ovarian = tested on: NCI/ADR-RES ovarian

Compound | TGI (OVCAR-4 ovarian) | TGI (A549 NSCLC) | TGI (IGROV1 ovarian) | TGI (786-0 renal) | TGI (UACC-62 melanoma) | TGI (UACC-257 melanoma) | TGI (HCT-15 colon) | TGI (SK-MEL-2 melanoma) | TGI (SR leukemia) | GI50 (OVCAR-4 ovarian) | GI50 (A549 NSCLC) | GI50 (IGROV1 ovarian) | GI50 (NCI/ADR-RES ovarian) | TGI (NCI/ADR-RES ovarian) | GI50 (786-0 renal) | GI50 (UACC-62 melanoma) | GI50 (UACC-257 melanoma) | GI50 (HCT-15 colon) | GI50 (SK-MEL-2 melanoma) | GI50 (SR leukemia)
Cc1cn2cc(-c3ccncc3)nc2s1 | > 100 µM | > 100 µM | > 100 µM | > 100 µM | > 100 µM | > 100 µM | > 100 µM | > 100 µM | – | – | – | – | – | – | – | – | – | – | – | –
O=C(N/N=C/c1cc(-c2ccccc2Cl)c(-c2ccccc2Cl)o1)c1ccncc1 | > 100 µM | > 100 µM | > 100 µM | > 100 µM | > 100 µM | > 100 µM | – | > 100 µM | – | – | – | – | – | – | – | – | – | – | – | –
CC(=O)OC12CCCCC1C1(CCCC1)NC2=O (stereo not drawn) | > 100 µM | > 100 µM | > 100 µM | > 100 µM | > 100 µM | > 100 µM | > 100 µM | – | > 100 µM | – | – | – | – | – | – | – | – | – | – | –
Cc1ccc(S(=O)(=O)NC(CCCCN)C(=O)CCl)cc1 (stereo not drawn) | > 100 µM | > 100 µM | > 100 µM | > 100 µM | > 100 µM | > 100 µM | > 100 µM | > 100 µM | – | > 100 µM | > 100 µM | > 100 µM | 81.3 µM | > 100 µM | 73.2 µM | 58.3 µM | > 100 µM | 72.4 µM | 67.5 µM | –
COc1cc(/C=C/C(=O)C(C)(C)C)cc(OC)c1OC | > 100 µM | > 100 µM | – | > 100 µM | > 100 µM | > 100 µM | > 100 µM | > 100 µM | > 100 µM | – | – | – | – | – | – | – | – | – | – | –
O=C1[C@@H]2C3C=CC([C@H]4C(=O)N(CO)C(=O)[C@@H]34)[C@@H]2C(=O)N1CO | > 100 µM | > 100 µM | > 100 µM | > 63.6 µM | > 100 µM | > 100 µM | > 56.7 µM | > 100 µM | – | – | – | – | – | – | – | – | – | – | – | –
CCCCCC1C2C(=O)NC(=O)C1C(=O)NC2=O (stereo not drawn) | > 100 µM | > 100 µM | > 100 µM | > 100 µM | > 100 µM | > 100 µM | > 100 µM | > 100 µM | – | – | – | – | – | – | – | – | – | – | – | –
O=C1c2cccc3cc4ccccc4c(c23)C(=O)N1CCCNCCNCCCN1C(=O)c2cccc3cc4ccccc4c(c23)C1=O | 1.58 µM | 0.373 µM | 1.72 µM | 1.69 µM | – | 2.25 µM | 1.36 µM | – | 1.51 µM | – | – | – | – | – | – | – | – | – | – | –
Oc1c(Br)cc(Br)c2cccnc12 | 97 µM | 54.6 µM | 51.4 µM | 5.91 µM | 7.37 µM | 6 µM | 31.1 µM | – | 13.7 µM | 4.09 µM | 3.62 µM | 4.18 µM | 2.82 µM | > 100 µM | 2.52 µM | 2.16 µM | 2.22 µM | 4.84 µM | – | 3.07 µM
CC/C(=C(\c1ccccc1)c1ccc(OCC[N+](C)(C)C)cc1)c1ccccc1 | 30.9 µM | 35.3 µM | 27.8 µM | 27.9 µM | 26.8 µM | 24.4 µM | 34.1 µM | 30.2 µM | – | – | – | – | – | – | – | – | – | – | – | –
COc1cc(OC)c(-c2oc3ccccc3c(=O)c2O)c(OC)c1 | – | > 100 µM | > 100 µM | > 100 µM | > 100 µM | > 100 µM | > 100 µM | – | > 100 µM | – | – | – | – | 5.05 µM | – | – | – | – | – | –
COC(=O)[C@@H](C)C[C@H](Cc1ccccc1)NC(=O)c1cccc([C@@H](C[C@H](C(C)C)N(C)C(=O)[C@@H](NC(=O)[C@H]2CCCCN2C)C(C)C)OC(C)=O)n1 | > 16.7 µM | > 16.7 µM | > 16.7 µM | > 16.7 µM | > 16.7 µM | > 16.7 µM | > 16.7 µM | – | > 16.7 µM | 0.00477 µM | 0.00591 µM | < 0.00167 µM | 0.152 µM | > 5.17 µM | 0.00583 µM | < 0.00167 µM | 0.0118 µM | 0.00507 µM | – | < 0.00167 µM
CC(=O)NC(Cc1ccccc1)C(=S)N1CCCC1 (stereo not drawn) | > 100 µM | > 100 µM | > 100 µM | > 100 µM | > 100 µM | > 100 µM | > 100 µM | > 100 µM | – | – | – | – | – | – | – | – | – | – | – | –
CNCc1ccc(C)c(NC(=O)c2ccc(Nc3nc(-c4ccccc4)c4ccccc4n3)cc2)c1 | 4.79 µM | 3.4 µM | – | 3.3 µM | – | 3.73 µM | 3.35 µM | 3.66 µM | 4.86 µM | 1.84 µM | 1.78 µM | – | 2.25 µM | 5.25 µM | 1.76 µM | – | 1.92 µM | 1.69 µM | 1.9 µM | 1.79 µM
O=C(Cc1nc2ccccc2s1)C(=O)Nc1ccccc1C(F)(F)F | > 100 µM | > 100 µM | > 100 µM | > 100 µM | > 100 µM | > 100 µM | > 100 µM | > 100 µM | – | – | – | – | – | – | – | – | – | – | – | –
NCCN.O=N[O-].O=N[O-].O=N[O-].O=N[O-].[Co+3].[K+] | > 100 µM | > 100 µM | > 100 µM | > 100 µM | > 100 µM | > 100 µM | > 100 µM | > 100 µM | – | > 100 µM | > 100 µM | > 100 µM | – | – | > 100 µM | > 100 µM | > 100 µM | > 100 µM | > 100 µM | –
Cc1ccc(S(=O)(=O)NC2(C=O)CCC(C(C)(C)C)CC2)cc1 (stereo not drawn) | > 100 µM | > 100 µM | > 100 µM | > 100 µM | > 100 µM | > 100 µM | > 100 µM | > 100 µM | 36.9 µM | – | – | – | – | – | – | – | – | – | – | –
CCc1cccc(C(C)C)c1C1C(=O)C(=O)N(c2nc3ccccc3s2)C(=O)C1=O | > 100 µM | > 100 µM | > 100 µM | > 100 µM | > 100 µM | > 100 µM | > 100 µM | > 100 µM | > 100 µM | – | – | – | – | – | – | – | – | – | – | –
Cc1nn(C(=O)CC(=O)Nc2ccccc2Cl)c(C)c1N=Nc1ccccc1Cl | > 100 µM | > 100 µM | > 100 µM | > 100 µM | > 100 µM | > 100 µM | > 100 µM | > 100 µM | > 100 µM | – | – | – | – | – | – | – | – | – | – | –
O=[N+]([O-])c1ccc(-c2ccc(C3=Nn4c(nnc4-c4ccc(Cl)cc4)SC3)o2)cc1 | > 100 µM | > 100 µM | > 100 µM | > 100 µM | > 100 µM | > 100 µM | > 100 µM | > 100 µM | > 100 µM | – | – | – | – | – | – | – | – | – | – | –
